Data published in a melting point compilation (Tetko et al.).

First: CCOC(=O)COC(=O)c1cc(Oc2ccc(C(F)(F)F)cc2Cl)ccc1[N+](=O)[O-]
Second: COC(=O)C1=C(C)NC(CBr)=C(C(=O)OCCCl)C1c1cccc([N+](=O)[O-])c1 (stereo not drawn)
The melting point of the first is lower: 65 °C for the first, 205 to 206 °C for the second.

First: Cc1ccc(-c2cc[nH]n2)cc1
Second: Cc1nc(-c2ccc(C(=O)O)cc2)cs1
The melting point of the first is lower: 82 to 86 °C for the first, 263 to 268 °C for the second.

Going from `Nc1c(Br)cc(Br)cc1Cc1ccccc1` to `CN1c2ccccc2Sc2ccc(CC(=O)O)cc21`, the melting point falls from 195 °C to 146 °C.

First: CNCC(=O)O
Second: CSCC(=O)O
The melting point of the first is higher: 208 °C for the first, 14 °C for the second.

First: CC(C)(C)OC(=O)N1CCN(CCC(=O)O)CC1
Second: NC(=O)CCC(=O)O
The melting point of the first is lower: 138 to 139 °C for the first, 155 °C for the second.

Compared with `COc1ccccc1-c1ccc(C=CC(=O)c2ccccc2)o1`, `Nc1cc(N)c(/C=C/c2ccccc2)c([N+](=O)[O-])c1C=Cc1ccccc1` is higher in melting point: 98 to 99 °C for the first, 175 °C for the second.

First: CCCCOC(=O)C1=C(C)NC(=O)NC1c1ccco1 (stereo not drawn)
Second: CCOC(=O)c1ccc2cn[nH]c2c1
The melting point of the first is higher: 170 °C for the first, 125 °C for the second.

First: O=Cc1cc([N+](=O)[O-])ccc1N1CCCC1
Second: CCC1(c2cccc(O)c2)CCCCN(C)C1=O (stereo not drawn)
The melting point of the first is lower: 136 to 138 °C for the first, 172 to 176 °C for the second.

First: COc1ccc2cc(C(O)C(C)O)ccc2c1 (stereo not drawn)
Second: COc1ccc(C(O)(c2cncnc2)C2CC2)cc1 (stereo not drawn)
The melting point of the first is higher: 115 °C for the first, 110 °C for the second.

First: CCC(=O)c1ccc2c(c1)N(CCCN(C)C)c1ccccc1S2
Second: Cc1ccc(Cl)c(Nc2ccccc2C(=O)O)c1Cl
The melting point of the first is lower: 69.5 °C for the first, 257 °C for the second.

Compared with `O=C1Nc2c(Cl)ccc(Cl)c2C1=O`, `O=C1Cc2cc(C(=O)CBr)ccc2N1` is lower in melting point: 251 to 254 °C for the first, 225 °C for the second.

Going from `O=C(O)c1cccnc1C(=O)O` to `O=C(O)CP(=O)(O)O`, the melting point falls from 228 °C to 144 °C.

Compared with `CC1(C)OC2CC3C4CC(F)C5=CC(=O)C=CC5(C)C4C(O)CC3(C)C2(C(=O)CO)O1` (stereo not drawn), `CCCCC(=O)OCC(=O)C1C(C)CC2C3CC(F)C4=CC(=O)C=CC4(C)C3(F)C(O)CC21C` (stereo not drawn) is lower in melting point: 245 °C for the first, 195 °C for the second.

First: Nc1ncnc2c1ncn2C1OC(CI)C(O)C1O (stereo not drawn)
Second: Cn1c(=O)c2[nH]cnc2n(C)c1=O
The melting point of the first is lower: 178 to 187 °C for the first, 270 °C for the second.

First: CC(C)COC(N)=O
Second: CCC(C)(CC)OC(N)=O
The melting point of the first is higher: 67 °C for the first, 56 °C for the second.

Going from `CC(C)(Oc1ccc(Cl)cc1)C(=O)OCc1cccnc1` to `COc1ccsc1CN(C(=O)CCl)c1c(C)cccc1C`, the melting point rises from 48.5 °C to 73 °C.

First: O=C(O)C=Cc1ccc(F)cc1C(F)(F)F
Second: NC(=S)Nc1ccc(F)cc1F
The melting point of the first is higher: 182 °C for the first, 163 to 168 °C for the second.

Compared with `Cc1cc(C(=O)NCCc2ccc(S(=O)(=O)NC(=O)NN3CCCCCC3)cc2)no1`, `O=C(c1cccs1)c1noc(-c2ccc3ccccc3c2)c1S(=O)(=O)c1ccccc1` is lower in melting point: 189 °C for the first, 128 °C for the second.

Going from `O=CC=O` to `Nc1cccc([N+](=O)[O-])c1[N+](=O)[O-]`, the melting point rises from 15 °C to 122 °C.

First: Cc1cc(Cl)cc([N+](=O)[O-])c1N
Second: COc1ccc(Cl)cc1N=C=O
The melting point of the first is higher: 126 to 132 °C for the first, 60 to 62 °C for the second.

Compared with `CN(c1c(F)c(F)c(C#N)c(F)c1F)N(O)O`, `Fc1c(F)c(F)c(P(c2ccccc2)c2c(F)c(F)c(F)c(F)c2F)c(F)c1F` is higher in melting point: 53 °C for the first, 61.5 °C for the second.

First: CCCNC(C)C(=O)Nc1ccccc1C (stereo not drawn)
Second: COC(=O)c1sc(C(F)(F)F)c(-c2ccccc2)c1N
The melting point of the first is lower: 37.5 °C for the first, 119 to 120 °C for the second.

Going from `COc1cc(OC)nc(Oc2cccc(Oc3nc(OC)cc(OC)n3)c2C(=O)ON=C(c2ccccc2)c2ccccc2)n1` to `COc1ccc(C#N)c(OC(F)(F)F)c1`, the melting point falls from 129 °C to 32 °C.

First: OC1CCOc2ccccc21 (stereo not drawn)
Second: Fc1ccccc1Cl
The melting point of the first is higher: 41 to 45 °C for the first, -43 °C for the second.

Going from `COC1OC(COC(C)=O)C(OC2OC(COC(C)=O)C(OC(C)=O)C(OC(C)=O)C2OC(C)=O)C(OC(C)=O)C1OC(C)=O` (stereo not drawn) to `CC(=O)OC1CCC2C3CCC4=CC(O)CCC4(C)C3CCC12C` (stereo not drawn), the melting point falls from 131 °C to 96 °C.

First: OCc1cc(-c2cccs2)[nH]n1
Second: Oc1cccc(I)c1
The melting point of the first is higher: 126 to 128 °C for the first, 118 °C for the second.

First: C[C@H]1C(=O)[C@H]2[C@@H](C[C@H]1C#N)C2(C)C
Second: CC(CCC(=O)O)C1CCC2C3C(=O)CC4CCCCC4(C)C3CCC12C (stereo not drawn)
The melting point of the first is lower: 54.5 °C for the first, 145 °C for the second.

Going from `CC(C)(C)c1cc(Br)cc(C(C)(C)C)c1O` to `COc1cc(O)cc(O)c1`, the melting point falls from 83 °C to 80.3 °C.

Compared with `O=Cc1ccc(-c2cc(C(F)(F)F)cc(C(F)(F)F)c2)o1`, `FC(F)OCC(F)(F)C(F)(F)F` is lower in melting point: 109 to 110 °C for the first, -107 °C for the second.

Going from `Cn1c(=O)c2c(ncn2CN2CCOCC2)n(C)c1=O` to `CC(C)CCCC(C)C1CCC2C3CC(=O)C4(O)CC(=O)CCC4(C)C3CCC12C` (stereo not drawn), the melting point rises from 177 °C to 222 °C.

First: OCC(CO)(CBr)CBr
Second: CCOC(=O)CCCCCC(=O)OCC
The melting point of the first is higher: 113 °C for the first, -24 °C for the second.

Work on `C[Si](C)(CCCC(=O)O)O[Si](C)(C)CCCC(=O)O` yielded a melting point of 47 °C.
